# Results from patent US20210392936A1, “Nutritional composition comprising urea and non-digestible oligosaccharides” (N.V. Nutricia, priority 2018, published 2021).
# Columns and labels:
# [1] = tested on: Bifidobacterium longum subspecies infantis ATCC 17930 (urease positive); test: Growth of strain ATCC 17930 with or without urea, CO2 and 2'FL as carbon source (Example 4); type: cell-based; details: 10 mM urea
# Description: In this experiment the urease positive strain Bifidobacterium longum subspecies infantis ATCC 17930, was used. The same growth media and experimental set up as in the second experiment described in example 3 was used, except that instead of scGOS/IcFOS, 2′-fucosyllactose (Jennewein Biotechnologie GmbH) was used as a carbon and energy source. As a nitrogen source tryptone was added (3.0 g/l), or no urea or 10 mM urea (final concentration), corresponding to 0, or 0.6 g/l urea.
# [2] = tested on: urease positive Bifidobacteria (mix of Bifidobacterium longum subspecies infantis strains and Bifidobacterium bifidum ATCC29521); test: Fermenter growth of urease positive Bifidobacteria mix with or without urea and CO2 (Example 3, first experiment); type: cell-based; details: urea N source (100 mM), lactose 20 g/l
# Excerpt: (§1) The following strains were used: Bifidobacterium breve DSM20213, which is the type strain of B. breve and urease negative. A mix of Bifidobacterium longum subspecies infantis strains was used that were predicted to be urease positive, to increase the chance of having a urease activity. […] Strains used were a mix of Bifidobacterium longum spp infantis DSM20088 (type strain), B. infantis M-63 (Morinaga), B. longum subspecies infantis ATCC 17930, B. longum subspecies infantis DN_163_0041 isolated from the faeces of a bottle-fed infants, B. infantis DN_163_0046 and B. longum ssp. infantis R-0033 (Lallemand) and Bifidobacterium bifidum ATCC29521 (type strain).
# (§2) g/l yeast extract, 0.75 g/l tryptone, 3 g/l KH2PO4, 4.8 g/l K2HPO4, 0.2 g/l MgSO4, 0.5 g Cysteine.HCl, 15 g Sodium Propionate, supplemented with 10 ml vitamin mix and 10 ml metal mix from 100× concentrates (Teusink et al. 2005, AEM, Vol 71 (issue 11) p. 7253-7262) and 100 μM NiCl. The pH of this medium is 6.8 (+/−0.05). As carbon source 20 g/l lactose was used and when appropriate urea was added to a final concentration of 100 mM. The medium was sterilized using filtration step with a 0.22 μm filter. […] Precultures of bifidobacterium strains were grown statically in absence of urea at 37° C. in an anaerobic atmosphere (90% N2, 5% Hz, 5% CO2).
# (§3) Inoculation occurred from a single colonies grown on TOS-mupirocin agar plates as known in the art. The main cultures (in the fermenters) were performed with 1×BASE supplemented with 0, 15, 50 or 100 mM urea (if applicable). During fermentation the headspace was flushed with N2 gas or with an anaerobic gas mixture ((90% N2, 5% H2, 5% CO2). CO2 is known to be needed for the growth of most Bifidobacteria in the absence of substrates that can liberate CO2.
# (§4) The main fermenters were inoculated with the preculture of B. breve at an OD600 of 0.05. For the B. longum subspecies infantis and bifidum mix the individual precultures were first mixed in an equal amount based on OD600 and subsequently also inoculated with a start OD600 of 0.05. The medium was stirred at 360 rpm by magnet stirring bar. The pH was controlled at 6.2 by addition of 5M NaOH. All growth (precultures, main fermenters, agar plates) experiments were performed at 37° C. Growth was monitored in time by off-line OD600 measurement. Samples were diluted before measurement where appropriate.
# [3] = tested on: urease negative Bifidobacteria (Bifidobacterium breve DSM20213); test: Growth with urea or tryptone as nitrogen source, scGOS/IcFOS as carbon source (Example 3, second experiment), urease negative; type: cell-based; details: CO2 gas, 50 mM urea, scGOS/IcFOS 20 g/l
# [4] = tested on: B. longum spp infantis M-63, B. longum subspecies infantis ATCC 17930, B. longum ssp. infantis R-0033 (single strains); test: Growth of single urease positive strains with urea and a carbon source without CO2 and other nitrogen source; type: cell-based, Bifidobacterium longum subspecies infantis; details: presence of urea and a carbon source, absence of CO2 and other nitrogen source; data not shown
# Excerpt: as §1
# [5] = tested on: urease positive B. longum ssp. infantis strains M-63, ATCC17930, DN_163_0041 and R-0033; test: Growth with urea concentrations or tryptone as nitrogen source, scGOS/IcFOS as carbon source (Example 3, second experiment), urease positive; type: cell-based, Bifidobacterium longum ssp. infantis; details: scGOS/IcFOS 20 g/l
# Description: Fermenters were sterilized containing 80 ml demi water and 20 ml of a 20 wt % solution of scGOS/IcFOS in a 9:1 wt/wt ratio. As a source of scGOS VivinalGOS (DOMO, Friesland Campina) was used, and as a source of IcFOS, RaftilinHP was used (Orafti). After sterilization 100 ml of sterilized 2× concentrated BASE medium was added. The final concentration of scGOS/IcFOS was 2 wt % based on volume, and this served as the carbon source. As a nitrogen source tryptone was added (3.0 g/l), or 0, 10, 50 or 100 mM urea (final concentration), corresponding to 0, 0.6 g/l, 3 g/l and 6 g/l. Precultures were grown in static tubes in 1×BASE supplemented with 3.0 g/l tryptone and 2 wt % scGOS/IcFOS under an anaerobic gas atmosphere (90% N2, 5% Hz, 5% CO2).
# as §3, §4
# A second experiment was performed. Here the growth with different concentrations urea as nitrogen (and CO2) source was compared to Tryptone (from Oxoid) as nitrogen source. In this case only B. longum ssp. infantis strains M-63, ATCC17930, DN_163_0041 and R-0033 were used and tryptone was removed from the basal medium. Where applicable tryptone or urea were added as nitrogen source to final concentrations of 3 g/l and 10, 50 or 100 mM, respectively. Instead of lactose as carbon source scGOS/IcFOS in a 9:1 wt/wt ratio was used in a final concentration of 20 g/l. As a source of scGOS VivinalGOS (FrieslandCampina) was used, and RaftininHP (Orafti) was used as IcFOS source.
# [6] = tested on: Bifidobacterium breve DSM20213 (urease negative); test: Fermenter growth of urease negative Bifidobacterium with or without urea and CO2 (Example 3, first experiment); type: cell-based; details: urea N source (100 mM), lactose 20 g/l
# Excerpt: as §1, §2, §3, §4
structure (smiles),measurement,setting,value
NC(N)=O [urea],Growth expressed as OD600,"[1]; CO2 gas, with 2'FL C source (+), 30 min",0.072 OD600
same,Growth expressed as OD600,"[1]; CO2 gas, with 2'FL C source (+), 240 min",0.298 OD600
same,Growth expressed as OD600,"[1]; CO2 gas, with 2'FL C source (+), 360 min",0.880 OD600
same,Growth expressed as OD600,"[1]; CO2 gas, with 2'FL C source (+), 540 min",2.070 OD600
same,Growth expressed as OD600,"[1]; CO2 gas, with 2'FL C source (+), 24 h",3.060 OD600
same,Growth expressed as OD600,"[1]; CO2 gas, without 2'FL C source (−), 30 min",0.071 OD600
same,Growth expressed as OD600,"[1]; CO2 gas, without 2'FL C source (−), 240 min",0.203 OD600
same,Growth expressed as OD600,"[1]; CO2 gas, without 2'FL C source (−), 360 min",0.191 OD600
same,Growth expressed as OD600,"[1]; CO2 gas, without 2'FL C source (−), 540 min",0.191 OD600
same,Growth expressed as OD600,"[1]; CO2 gas, without 2'FL C source (−), 24 h",0.187 OD600
same,Growth expressed as OD600,"[1]; N2 gas, with 2'FL C source (+), 30 min",0.079 OD600
same,Growth expressed as OD600,"[1]; N2 gas, with 2'FL C source (+), 240 min",0.154 OD600
same,Growth expressed as OD600,"[1]; N2 gas, with 2'FL C source (+), 360 min",0.350 OD600
same,Growth expressed as OD600,"[1]; N2 gas, with 2'FL C source (+), 540 min",0.600 OD600
same,Growth expressed as OD600,"[1]; N2 gas, with 2'FL C source (+), 24 h",1.320 OD600
same,Growth expressed as OD600,"[1]; N2 gas, without 2'FL C source (−), 30 min",0.068 OD600
same,Growth expressed as OD600,"[1]; N2 gas, without 2'FL C source (−), 240 min",0.175 OD600
same,Growth expressed as OD600,"[1]; N2 gas, without 2'FL C source (−), 360 min",0.179 OD600
same,Growth expressed as OD600,"[1]; N2 gas, without 2'FL C source (−), 540 min",0.163 OD600
same,Growth expressed as OD600,"[1]; N2 gas, without 2'FL C source (−), 24 h",0.157 OD600
same,Growth expressed as OD600,"[2]; CO2 gas, 60 min",0.099 OD600
same,Growth expressed as OD600,"[2]; CO2 gas, 180 min",0.168 OD600
same,Growth expressed as OD600,"[2]; CO2 gas, 360 min",0.680 OD600
same,Growth expressed as OD600,"[2]; CO2 gas, 660 min",3.940 OD600
same,Growth expressed as OD600,"[2]; CO2 gas, 23 h",3.850 OD600
same,Growth expressed as OD600,"[2]; N2 gas, 60 min",0.095 OD600
same,Growth expressed as OD600,"[2]; N2 gas, 180 min",0.161 OD600
same,Growth expressed as OD600,"[2]; N2 gas, 360 min",0.560 OD600
same,Growth expressed as OD600,"[2]; N2 gas, 660 min",3.930 OD600
same,Growth expressed as OD600,"[2]; N2 gas, 23 h",3.700 OD600
same,Growth expressed as OD600,[3]; 15 min,0.074 OD600
same,Growth expressed as OD600,[3]; 135 min,0.125 OD600
same,Growth expressed as OD600,[3]; 270 min,0.280 OD600
same,Growth expressed as OD600,[3]; 445 min,0.460 OD600
same,Growth expressed as OD600,[3]; 625 min,0.590 OD600
same,Growth expressed as OD600,[3]; 24 h,1.020 OD600
same,Growth of single strains,[4],able to grow very well
same,Growth expressed as OD600,"[5]; CO2 gas, 50 mM urea, 15 min",0.079 OD600
same,Growth expressed as OD600,"[5]; CO2 gas, 50 mM urea, 135 min",0.161 OD600
same,Growth expressed as OD600,"[5]; CO2 gas, 50 mM urea, 270 min",0.670 OD600
same,Growth expressed as OD600,"[5]; CO2 gas, 50 mM urea, 445 min",2.610 OD600
same,Growth expressed as OD600,"[5]; CO2 gas, 50 mM urea, 625 min",6.500 OD600
same,Growth expressed as OD600,"[5]; CO2 gas, 50 mM urea, 24 h",6.5 OD600
same,Growth expressed as OD600,"[5]; N2 gas, 10 mM urea, 15 min",0.084 OD600
same,Growth expressed as OD600,"[5]; N2 gas, 10 mM urea, 135 min",0.137 OD600
same,Growth expressed as OD600,"[5]; N2 gas, 10 mM urea, 270 min",0.390 OD600
same,Growth expressed as OD600,"[5]; N2 gas, 10 mM urea, 445 min",1.280 OD600
same,Growth expressed as OD600,"[5]; N2 gas, 10 mM urea, 625 min",3.900 OD600
same,Growth expressed as OD600,"[5]; N2 gas, 10 mM urea, 24 h",3.720 OD600
same,Growth expressed as OD600,"[5]; N2 gas, 50 mM urea, 15 min",0.082 OD600
same,Growth expressed as OD600,"[5]; N2 gas, 50 mM urea, 135 min",0.140 OD600
same,Growth expressed as OD600,"[5]; N2 gas, 50 mM urea, 270 min",0.450 OD600
same,Growth expressed as OD600,"[5]; N2 gas, 50 mM urea, 445 min",1.260 OD600
same,Growth expressed as OD600,"[5]; N2 gas, 50 mM urea, 625 min",2.970 OD600
same,Growth expressed as OD600,"[5]; N2 gas, 50 mM urea, 24 h",2.850 OD600
same,Growth expressed as OD600,"[5]; N2 gas, 100 mM urea, 15 min",0.079 OD600
same,Growth expressed as OD600,"[5]; N2 gas, 100 mM urea, 135 min",0.144 OD600
same,Growth expressed as OD600,"[5]; N2 gas, 100 mM urea, 270 min",0.430 OD600
same,Growth expressed as OD600,"[5]; N2 gas, 100 mM urea, 445 min",1.130 OD600
same,Growth expressed as OD600,"[5]; N2 gas, 100 mM urea, 625 min",2.800 OD600
same,Growth expressed as OD600,"[5]; N2 gas, 100 mM urea, 24 h",2.520 OD600
same,Growth expressed as OD600,"[6]; CO2 gas, 60 min",0.062 OD600
same,Growth expressed as OD600,"[6]; CO2 gas, 180 min",0.083 OD600
same,Growth expressed as OD600,"[6]; CO2 gas, 360 min",0.211 OD600
same,Growth expressed as OD600,"[6]; CO2 gas, 660 min",1.560 OD600
same,Growth expressed as OD600,"[6]; CO2 gas, 23 h",2.250 OD600
same,Growth expressed as OD600,"[6]; N2 gas, 60 min",0.051 OD600
same,Growth expressed as OD600,"[6]; N2 gas, 180 min",0.061 OD600
same,Growth expressed as OD600,"[6]; N2 gas, 360 min",0.072 OD600
same,Growth expressed as OD600,"[6]; N2 gas, 660 min",0.054 OD600
same,Growth expressed as OD600,"[6]; N2 gas, 23 h",0.046 OD600
